# Data as given in article PMC10940318, “Targeted intracellular delivery of dimeric STINGa by two pHLIP peptides for treatment of solid tumors” (Frontiers in Pharmacology, 2024).
# Columns and labels:
# human STING WT protein = biological target: T1, human STING WT protein (Homo sapiens, UniProt Q86WV6); assay: HTRF competitive binding to STING protein (human STING WT binding kit); settings: HTRF competitive assay, 6His-tagged human STING WT, d2-labelled ligand, 3 h RT; EC50 in method, IC50 in Fig. S1; read-out: binding affinity to STING protein
# T1 construct: purchased Cisbio
# Description: STING WT ligand d2 reagent was premixed with 6His Tb antibodies, and it was added to each well and the plate was incubated for 3 h at RT. Fluorescence intensities at 616 nm and 665 nm excited at […] were recorded on the SpectraMax ID5 plate reader (Molecular Devices). The homogeneous time resolved fluorescence (HTRF) ratio was calculated to establish the binding of each agent to the STING protein and to calculate EC50.
# [1] = test system: THP-1-Blue-ISG cells polarized into M2-type macrophages; assay: Activation of IFN (IRF-SEAP reporter) in M2-polarized macrophages; type: cell-based, human; settings: THP1-Blue-ISG cells polarized by PMA, IL-4/IL-13, 2 h in DMEM without FBS pH 6.9, then 48 h, QUANTI-Blue, absorbance 655 nm, read-out: EC50 of activation of IRF signaling
# Description: THP-1-Blue™-ISG cells (Invivogen) expressing an interferon (IFN) regulatory factor (IRF)-inducible secreted embryonic alkaline phosphatase (SEAP) reporter construct were used. Cells were maintained in RPMI growth medium supplemented with L-glutamine, sodium pyruvate, 10% fetal bovine serum (FBS), normocin and ciprofloxacin hydrochloride in a humidified atmosphere of 5% CO2 and 95% air at 37°C. Cells were seeded in 96-well plates at a density of 75,000 cells/well. To generate M2 polarized macrophages, cells were treated first with 185 ng/mL phorbol 12-myristate 13-acetate (PMA) for 6 h and then 20 ng/mL of interleukin 4 (IL-4) and 20 ng/mL of interleukin 13 (IL-13) (both from PeproTech) were added for another 16 h of treatment. […] After a 2-h incubation, an equal volume of RPMI supplemented with 20% heat-inactivated FBS was added, and cells were incubated for another 48 h. SEAP activity was accessed using the QUANTI-Blue™ Solution (Invivogen) to evaluate type I interferon protein levels: 150 μL of the colorimetric reagent was added to 50 μL of cell supernatant for 30 min, 37°C, followed by absorption measurement at 655 nm.
# [2] = Stability in mouse plasma; settings: BALB/c mouse plasma, 200 µM
# Description: Plasma proteins were precipitated by methanol (1:5 volume ratio of plasma to methanol) and centrifuged for 10 min at […]. The supernatant was collected and analyzed by HPLC using a Zorbax SB-C18 4.6 × 250 mm, 5 μm column with a gradient from 20% to 80% acetonitrile in water containing 0.05% TFA. Chromatograms were recorded at 220 nm, 280 nm and 325 nm.
# [3] = test system: CT26 murine colorectal cancer tumors; assay: Treatment of CT26 tumors in mice; type: in vivo, Balb/c mice; settings: two IP injections of 300 µM 500 µL on days 1 and 3; CT26 tumors
# Description: For the treatment of CT26 tumors, 5 × 10^4 CT26 murine colorectal cancer cells (ATCC, CRL-2638) were injected subcutaneously (SQ) in 100 μL of growth medium into the right flank of female Balb/c mice ranging in age from 7 to 9 weeks (Envigo RMS, Inc.). […] The compounds were dissolved in DMSO as a stock solution and transferred to PBS (vehicle). The residual DMSO in the final solution injected into animals was less than 2%. Tumor volume and body weight were measured 3 times per week throughout the study. Measurements of tumors were performed using calipers, and the tumor volume (V) was calculated with the formula: V=0.52∙L∙W^2 where L is the length and W is the width of the measured tumor. Mice were removed from the study and euthanized when the tumor volume was greater than 2,000 mm^3.
# [4] = Self-immolation kinetics of the S-S linker and payload release after DTT, by HPLC; type: physicochemical; settings: DTT in 50 mM phosphate buffer, 150 mM NaCl, pH 7.4; HPLC at 0.5-48 h, UV 220/280/325 nm
# Description: Figure S3. Kinetics of self-immolation of 2pHLIP-dMSA. […] Starting 2pHLIP-dMSA is shown on A.
# Figure S4. Self-immolation kinetics of pHLIP-mMSA. HPLC chromatograms recorded at 280 nm and 325 nm for pHLIP-mMSA treated with DTT dissolved in 50 mM phosphate buffer containing 150 mM NaCl pH 7.4 at different time points ([…]) after addition of DTT (A-G) and the retention time for mMSA (H) and pHLIP (I) are shown. Starting pHLIP-mMSA is shown on A.
# [5] = Stability in human plasma; type: in vitro ADME; settings: single donor human plasma, 200 µM, 0-24 h at 37°C, methanol precipitation, HPLC C18, UV 220/280/325 nm
# Description: Plasma proteins were precipitated by methanol (1:5 volume ratio of plasma to methanol) and centrifuged for 10 min at 13.4 rpm. The supernatant was collected and analyzed by HPLC using a Zorbax SB-C18 4.6 × 250 mm, 5 μm column with a gradient from 20% to 80% acetonitrile in water containing 0.05% TFA. Chromatograms were recorded at 220 nm, 280 nm and 325 nm.
# [6] = Blood clearance (PK) by whole blood fluorescence imaging; type: in vivo, Balb/c mice; settings: single RO injection of 2(ICG-pHLIP)-dMSA 50 µM 100 µL, CT26 tumor-bearing female Balb/c mice; whole blood fluorescence, exponential fit
# Description: (§1) For biodistribution studies 5 × 10^4 of CT26 cancer cells were injected SQ in 100 µL of growth medium into the right flank of female Balb/c mice and tumors were grown until they reached 150–250 mm^3 in volume. Then a single retro-orbital (RO) injection of 50 μM 100 μL of 2(ICG-pHLIP)-dMSA was performed. Animals were euthanized at 5 min, 1, 4, 24, 48, 72, and 120 h post-injection, blood was collected in K2 EDTA vacutainer blood collection tubes (BD), and necropsy was performed immediately after animals were euthanized. Blood, tumors and major organs (kidney, liver, spleen, pancreas, lung, heart, large and small intestines, bone, muscle, brain) were collected, and imaged ex vivo immediately after necropsy. Blood (200 µL) was imaged in 96-well plates with black bottom and walls.
# (§2) The in vivo and ex vivo bright field and near-infrared fluorescent imaging employed a Stryker 1588 AIM endoscopic system with L10 AIM Light Source (808 nm excitation and collection of light in the range of approximately of 815–850 nm), and a 1588 AIM Camera using a 10 mm scope. The lens was kept at a fixed distance from the surface of the organs, within an enclosed (light-protected) area. Calibration curves converting laser and gain settings were established by imaging of pHLIP-ICG solution at different concentrations. The ex vivo fluorescence imaging of tissue specimens was performed using three different laser settings and six different gain settings. The digital fluorescence images were split into RGB channels, with the green channel being analyzed using ImageJ program to calculate the average fluorescence intensity. All average intensities were adjusted based on their capture settings and using calibration curves to present fluorescence intensities corresponding to the unified (the same) settings.
# CT26 tumor = assay: Biodistribution and tumor targeting by ex vivo NIR fluorescence imaging; type: in vivo, Balb/c mice; settings: single RO injection 50 µM 100 µL; ex vivo fluorescence at 1-120 h
# Description: as §1, with “Blood, tumors and major organs (kidney, liver, spleen, pancreas, lung, heart, large and small intestines, bone, muscle, brain) were collected, and imaged ex vivo immediately after necropsy. Blood (200 µL) was imaged in 96-well plates with black bottom and walls.” left out
# as §2, with “The lens was kept at a fixed distance from the surface of the organs, within an enclosed (light-protected) area. Calibration curves converting laser and gain settings were established by imaging of pHLIP-ICG solution at different concentrations.” left out
# T1 sequence (Q86WV6 whole entry): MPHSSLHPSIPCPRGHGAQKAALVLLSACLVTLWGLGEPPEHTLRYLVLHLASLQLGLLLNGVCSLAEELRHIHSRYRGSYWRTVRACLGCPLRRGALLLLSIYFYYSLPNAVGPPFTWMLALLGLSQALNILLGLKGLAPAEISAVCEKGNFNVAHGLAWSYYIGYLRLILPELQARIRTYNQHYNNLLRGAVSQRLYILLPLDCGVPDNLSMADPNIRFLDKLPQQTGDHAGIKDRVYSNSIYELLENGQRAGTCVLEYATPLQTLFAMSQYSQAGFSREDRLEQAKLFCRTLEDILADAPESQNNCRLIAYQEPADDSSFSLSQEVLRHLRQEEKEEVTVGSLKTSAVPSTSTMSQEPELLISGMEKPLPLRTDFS
molecule,measurement,setting,value
"COc1cc2cc(C(=O)CCC(=O)O)sc2cc1OC [mMSA, reference compound]",IC50,human STING WT protein,7.5 µM
same,EC50,[1],2.2 µM
same,time within which the cargo released from pHLIP underwent degradation in mouse plasma,"[2]; 37°C, HPLC C18, UV",≤ 24 h
same,therapeutic activity on animals (in words),[3],did not demonstrate any activity
ADQDNPWRAYLDLLFPTDTLLLDLLWCG [pHLIP-mMSA],time to completion of linker self-immolation and release of payload in its original form,[4],≤ 24 h
same,stability in human plasma (in words),[5],very high
same,stability in mouse plasma (in words),"[2]; 0-24 h at 37°C, methanol precipitation, HPLC C18, UV 220/280/325 nm",low
"AKDQDNPWRAYLDLLFPTDTLLLDLLWCG [2(ICG-pHLIP)-dMSA, fluorescent version of 2pHLIP-dMSA with ICG dye on a lysine near the N-terminus of each pHLIP]",blood clearance half-life,[6],32.2 h
same,accumulation in the tumor (in words),CT26 tumor,significant accumulation of the agent in the tumor from 1 h and up to 48 h
same,organ and tissue clearances (in words),CT26 tumor,slow
